# Test results taken from paper PMC11012124, “Synthesis of Novel Triazine-Based Chalcones and 8,9-dihydro-7H-pyrimido[4,5-b][1,4]diazepines as Potential Leads in the Search of Anticancer, Antibacterial and Antifungal Agents” (International Journal of Molecular Sciences, 2024).
# Key:
# 60 cancer cell lines = test: NCI-60 one-dose screen (10 μM); type: cell-based; details: Homo sapiens; one dose of 10 μM, mean over 60 cancer cell lines; read-out: Mean Growth Percent (MGP)
# Description: Additionally, the mean of the growth percentages (MGP) of each compound against all the 60 cancer cell lines is also reported, which is used as one of the selection criteria to continue with tests at five concentration doses.
# MOLT-4 = test: cells; details: Homo sapiens, MOLT-4, 48 h; for CC50: read-out: LC50
# RPMI-8226 = test: cells; details: Homo sapiens, RPMI-8226, 48 h; for CC50: read-out: LC50
# A549/ATCC = test: cells; details: Homo sapiens, A549, 48 h; for CC50: read-out: LC50
# EKVX = test: cells; details: Homo sapiens, 48 h; for CC50: read-out: LC50
# HOP-62 = test: cells; details: Homo sapiens, HOP-62, 48 h; for CC50: read-out: LC50
# HOP-92 = test: cells; details: Homo sapiens, HOP-92, 48 h; for CC50: read-out: LC50
# NCI-H226 = test: cells; details: Homo sapiens, NCI-H226, 48 h; for CC50: read-out: LC50
# NCI-H23 = test: cells; details: Homo sapiens, NCI-H23, 48 h; for CC50: read-out: LC50
# NCI-H322M = test: cells; details: Homo sapiens, 48 h; for CC50: read-out: LC50
# COLO 205 = test: cells; details: Homo sapiens, COLO 205, 48 h; for CC50: read-out: LC50
# HCC-2998 = test: cells; details: Homo sapiens, HCC 2998, 48 h; for CC50: read-out: LC50
# HCT-116 = test: cells; details: Homo sapiens, HCT-116, 48 h; for CC50: read-out: LC50
# HCT-15 = test: cells; details: Homo sapiens, HCT-15, 48 h; for CC50: read-out: LC50
# HT29 = test: cells; details: Homo sapiens, HT-29, 48 h; for CC50: read-out: LC50
# SF-268 = test: cells; details: Homo sapiens, SF-268, 48 h; for CC50: read-out: LC50
# SF-295 = test: cells; details: Homo sapiens, SF-295, 48 h; for CC50: read-out: LC50
# SF-539 = test: cells; details: Homo sapiens, SF-539, 48 h; for CC50: read-out: LC50, SF-539, 48 h
# SNB-19 = test: cells; details: Homo sapiens, SNB-19, 48 h
# SNB-75 = test: cells; details: Homo sapiens, SNB-75, 48 h; for CC50: read-out: LC50
# U251 = test: cells; details: Homo sapiens, U-251, 48 h; for GI50: U251, 48 h; for CC50: read-out: LC50
# LOX IMVI = test: cells; details: Homo sapiens, 48 h; for CC50: read-out: LC50, LOX IMVI, 48 h
# M14 = test: cells; details: Homo sapiens, M14, 48 h; for CC50: read-out: LC50
# SK-MEL-5 = test: cells; details: Homo sapiens, SK-MEL-5, 48 h; for CC50: read-out: LC50
# UACC-257 = test: cells; details: Homo sapiens, UACC-257, 48 h; for CC50: read-out: LC50
# UACC-62 = test: cells; details: Homo sapiens, UACC-62, 48 h
# OVCAR-3 = test: cells; details: Homo sapiens, OVCAR-3, 48 h; for CC50: read-out: LC50
# 786-0 = test: cells; details: Homo sapiens, 786-0, 48 h; for CC50: read-out: LC50
# A498 = test: cells; details: Homo sapiens, A498, 48 h; for CC50: read-out: LC50
# ACHN = test: cells; details: Homo sapiens, 48 h; for CC50: read-out: LC50
# UO-31 = test: cells; details: Homo sapiens, UO-31, 48 h; for CC50: read-out: LC50
# PC-3 = test: cells; details: Homo sapiens, PC-3, 48 h; for CC50: read-out: LC50
# MDA-MB-231/ATCC = test: cells; details: Homo sapiens, MDA-MB-231, 48 h
# HS 578T = test: cells; details: Homo sapiens, 48 h; for CC50: read-out: LC50
# BT-549 = test: cells; details: Homo sapiens, BT-549, 48 h; for CC50: read-out: LC50
# MDA-MB-468 = test: cells; details: Homo sapiens, MDA-MB-468, 48 h; for CC50: read-out: LC50
# RXF 393 = test: cells; details: Homo sapiens, RXF 393, 48 h
compound,measurement,setting,value
COc1cc(/C=C/C(=O)c2ccccc2)ccc1Oc1nc(Nc2ccc(F)cc2)nc(N(C)C)n1 [21a],activity at 10 µM,60 cancer cell lines,24.6%
same,GI50,MOLT-4,2.56 µM
same,CC50,MOLT-4,> 100 µM
same,GI50,RPMI-8226,2.83 µM
same,CC50,RPMI-8226,> 100 µM
same,GI50,A549/ATCC,11.7 µM
same,CC50,A549/ATCC,> 100 µM
same,GI50,EKVX,4.73 µM
same,CC50,EKVX,> 100 µM
same,GI50,HOP-62,26.6 µM
same,CC50,HOP-62,> 100 µM
same,GI50,HOP-92,2.08 µM
same,CC50,HOP-92,> 100 µM
same,GI50,NCI-H226,4.94 µM
same,CC50,NCI-H226,64.9 µM
same,GI50,NCI-H23,12.6 µM
same,CC50,NCI-H23,> 100 µM
same,GI50,NCI-H322M,28.7 µM
same,CC50,NCI-H322M,> 100 µM
same,GI50,COLO 205,15.1 µM
same,CC50,COLO 205,> 100 µM
same,GI50,HCC-2998,12.9 µM
same,CC50,HCC-2998,> 100 µM
same,GI50,HCT-116,3.21 µM
same,CC50,HCT-116,45.5 µM
same,GI50,HCT-15,3.31 µM
same,CC50,HCT-15,36.2 µM
same,GI50,HT29,4.36 µM
same,CC50,HT29,59.7 µM
same,GI50,SF-268,12.2 µM
same,CC50,SF-268,> 100 µM
same,GI50,SF-295,6.89 µM
same,CC50,SF-295,> 100 µM
same,GI50,SF-539,13.8 µM
same,CC50,SF-539,51.7 µM
same,GI50,SNB-19,10.2 µM
same,CC50,SNB-19; read-out: LC50,74.9 µM
same,GI50,SNB-75,4.7 µM
same,CC50,SNB-75,> 100 µM
same,GI50,U251,2.84 µM
same,CC50,U251,60.6 µM
same,GI50,LOX IMVI,1.6 µM
same,CC50,LOX IMVI,6.23 µM
same,GI50,M14,13 µM
same,CC50,M14,> 100 µM
same,GI50,SK-MEL-5,6.21 µM
same,CC50,SK-MEL-5,> 100 µM
same,GI50,UACC-257,6.44 µM
same,CC50,UACC-257,> 100 µM
same,GI50,UACC-62,4.99 µM
same,CC50,UACC-62; read-out: LC50,79.4 µM
same,GI50,OVCAR-3,11.8 µM
same,CC50,OVCAR-3,> 100 µM
same,GI50,786-0,20.5 µM
same,CC50,786-0,> 100 µM
same,GI50,A498,27 µM
same,CC50,A498,> 100 µM
same,GI50,ACHN,8.29 µM
same,CC50,ACHN,> 100 µM
same,GI50,UO-31,4.4 µM
same,CC50,UO-31,> 100 µM
same,GI50,PC-3,10 µM
same,CC50,PC-3,> 100 µM
same,GI50,MDA-MB-231/ATCC,6.92 µM
same,CC50,MDA-MB-231/ATCC; read-out: LC50,56.1 µM
same,GI50,HS 578T,5.44 µM
same,CC50,HS 578T,> 100 µM
same,GI50,BT-549,12 µM
same,CC50,BT-549,68.1 µM
same,GI50,MDA-MB-468,3.21 µM
same,CC50,MDA-MB-468,> 100 µM
CN(C)c1nc(NCCNS(=O)(=O)c2ccc(C3=Nc4c(N)nc(N)nc4NC(c4ccc(C(F)(F)F)cc4)C3)cc2)nc(Nc2ccc(F)cc2)n1 (centres unmarked) [31g],activity at 10 µM,60 cancer cell lines,6.81%
same,GI50,MOLT-4,2.74 µM
same,CC50,MOLT-4,86 µM
same,GI50,RPMI-8226,4 µM
same,CC50,RPMI-8226,86 µM
same,GI50,A549/ATCC,55 µM
same,CC50,A549/ATCC,86 µM
same,GI50,EKVX,5.52 µM
same,CC50,EKVX,86 µM
same,GI50,HOP-62,31.4 µM
same,CC50,HOP-62,86 µM
same,GI50,HOP-92,2.99 µM
same,CC50,HOP-92,16.9 µM
same,GI50,NCI-H226,37.3 µM
same,CC50,NCI-H226,86 µM
same,GI50,NCI-H23,27.7 µM
same,CC50,NCI-H23,86 µM
same,GI50,NCI-H322M,42.5 µM
same,CC50,NCI-H322M,86 µM
same,GI50,COLO 205,9.73 µM
same,CC50,COLO 205,21.8 µM
same,GI50,HCC-2998,4.73 µM
same,CC50,HCC-2998,25.9 µM
same,GI50,HCT-116,5.1 µM
same,CC50,HCT-116,86 µM
same,GI50,HCT-15,55.1 µM
same,CC50,HCT-15,86 µM
same,GI50,HT29,4.88 µM
same,CC50,HT29,18.3 µM
same,GI50,SF-268,11.2 µM
same,CC50,SF-268,86 µM
same,GI50,SF-295,12.9 µM
same,CC50,SF-295,86 µM
same,GI50,SF-539,6.22 µM
same,CC50,SF-539,24.7 µM
same,GI50,SNB-75,2.13 µM
same,CC50,SNB-75,86 µM
same,GI50,U251,5.52 µM
same,CC50,U251,86 µM
same,GI50,LOX IMVI,3.14 µM
same,CC50,LOX IMVI,12 µM
same,GI50,M14,7.87 µM
same,CC50,M14,86 µM
same,GI50,SK-MEL-5,10.4 µM
same,CC50,SK-MEL-5,21.3 µM
same,GI50,UACC-257,23.3 µM
same,CC50,UACC-257,86 µM
same,GI50,OVCAR-3,11.9 µM
same,CC50,OVCAR-3,86 µM
same,GI50,786-0,10.1 µM
same,CC50,786-0,39.8 µM
same,GI50,A498,22.2 µM
same,CC50,A498,77.4 µM
same,GI50,ACHN,> 86 µM
same,CC50,ACHN,> 86 µM
same,GI50,RXF 393,2.57 µM
same,CC50,RXF 393; read-out: LC50,18.8 µM
same,GI50,UO-31,> 86 µM
same,CC50,UO-31,> 86 µM
same,GI50,PC-3,4.37 µM
same,CC50,PC-3,86 µM
same,GI50,HS 578T,9.03 µM
same,CC50,HS 578T,86 µM
same,GI50,BT-549,11.8 µM
same,CC50,BT-549,32.6 µM
same,GI50,MDA-MB-468,2.67 µM
same,CC50,MDA-MB-468,11.7 µM
CN(C)c1nc(NCCNS(=O)(=O)c2ccc(C3=Nc4c(N)nc(N)nc4NC(c4ccc(F)cc4)C3)cc2)nc(Nc2ccc(F)cc2)n1 (centres unmarked) [31f],activity at 10 µM,60 cancer cell lines,37.1%
same,GI50,MOLT-4,2.45 µM
same,GI50,RPMI-8226,5.25 µM
same,CC50,RPMI-8226,> 100 µM
same,GI50,A549/ATCC,> 100 µM
same,CC50,A549/ATCC,> 100 µM
same,GI50,EKVX,5.17 µM
same,CC50,EKVX,> 100 µM
same,GI50,HOP-62,96 µM
same,CC50,HOP-62,> 100 µM
same,GI50,HOP-92,3.09 µM
same,CC50,HOP-92,23.3 µM
same,GI50,NCI-H226,> 100 µM
same,CC50,NCI-H226,> 100 µM
same,GI50,NCI-H23,54.1 µM
same,CC50,NCI-H23,> 100 µM
same,GI50,NCI-H322M,> 100 µM
same,CC50,NCI-H322M,> 100 µM
same,GI50,COLO 205,11.8 µM
same,CC50,COLO 205,> 100 µM
same,GI50,HCC-2998,4.22 µM
same,CC50,HCC-2998,> 100 µM
same,GI50,HCT-116,4.54 µM
same,CC50,HCT-116,> 100 µM
same,GI50,HCT-15,> 100 µM
same,CC50,HCT-15,> 100 µM
same,GI50,HT29,3.88 µM
same,CC50,HT29,> 100 µM
same,GI50,SF-268,4.83 µM
same,CC50,SF-268,> 100 µM
same,GI50,SF-295,6.71 µM
same,CC50,SF-295,> 100 µM
same,GI50,SF-539,3.89 µM
same,CC50,SF-539,> 100 µM
same,GI50,SNB-75,2.53 µM
same,CC50,SNB-75,74 µM
same,GI50,U251,6.35 µM
same,CC50,U251,> 100 µM
same,GI50,LOX IMVI,2.62 µM
same,CC50,LOX IMVI,9.13 µM
same,GI50,M14,3.84 µM
same,CC50,M14,25.3 µM
same,GI50,SK-MEL-5,3.36 µM
same,CC50,SK-MEL-5,14.9 µM
same,GI50,UACC-257,11.4 µM
same,CC50,UACC-257,> 100 µM
same,GI50,OVCAR-3,8.09 µM
same,CC50,OVCAR-3,> 100 µM
same,GI50,786-0,4.77 µM
same,CC50,786-0,> 100 µM
same,GI50,A498,22.1 µM
same,CC50,A498,> 100 µM
same,GI50,ACHN,> 100 µM
same,CC50,ACHN,> 100 µM
same,GI50,RXF 393,2.48 µM
same,GI50,UO-31,> 100 µM
same,CC50,UO-31,> 100 µM
same,GI50,PC-3,5.04 µM
same,CC50,PC-3,> 100 µM
same,GI50,HS 578T,5.7 µM
same,CC50,HS 578T,> 100 µM
same,GI50,BT-549,3.26 µM
same,CC50,BT-549,18.2 µM
same,GI50,MDA-MB-468,2.15 µM
same,CC50,MDA-MB-468,6.24 µM
